Reference: the supplement of paper PMC11997997

What was measured:
[1] = tested on: murine bone marrow-derived macrophages; assay: area under cytotoxicity dose-response curve (AUC (% cytotoxicity x dose, relative)); higher = more cytotoxic; conditions: duration: 6 days; dose range: 0.13-80 uM, 8 points
Method in brief: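 Values are the area under the cytotoxicity dose–response curve, calculated with GraphPad Prism version 10. Primary murine bone marrow-derived macrophages were exposed to final concentrations of 80–0.13 μM for 6 days, and viability was read by CellTiter-Glo luminescence with normalisation to vehicle and positive control wells.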

[2] = tested on: Mycobacterium tuberculosis CDC1551 (intracellular, in murine BMDM); assay: area under intracellular growth-inhibition dose-response curve (AUC (% inhibition x dose, relative)); higher = more potent; conditions: duration: 6 days; dose range: 0.13-80 uM, 8 points
Method in brief: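 The value is the area under the growth-inhibition dose–response curve, calculated in GraphPad Prism. Primary murine bone marrow-derived macrophages were seeded in 384-well opaque plates and, 24 h later, infected for 1 h with luciferase-expressing M. tuberculosis CDC1551 at multiplicity of infection 1. Cells were then exposed for 6 days to an 8-dose, 2.5-fold series (final 80–0.13 μM). Growth was read with the Bright-Glo luciferin assay and normalised to a reference drug control and to the lowest-concentration wells.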

O=[N+]([O-])c1ccccc1-c1cc(-c2ccccc2)cc(-c2ccccc2)[n+]1Cc1ccccc1Cl.[O-][Cl+3]([O-])([O-])[O-]
area under cytotoxicity dose-response curve [1]: < 0 | area under intracellular growth-inhibition dose-response curve [2]: 144

CN(C)c1ccc(O)c2c1CC1CC3[C@@H](N(C)C)C(=O)C(C(N)=O)=C(O)[C@]3(O)C(=O)C1=C2O.Cl (stereo partly drawn)
area under cytotoxicity dose-response curve [1]: 112 | area under intracellular growth-inhibition dose-response curve [2]: 246

CC1CCN(C(=O)C2CCN(c3ncnc4c3nc3n4CCCCC3)CC2)CC1
area under cytotoxicity dose-response curve [1]: 35.4 | area under intracellular growth-inhibition dose-response curve [2]: 176

O=[N+]([O-])c1cc(Cl)c(O)c(-[n+]2c(-c3ccccc3)cc(-c3ccccc3)cc2-c2ccccc2)c1.[O-][Cl+3]([O-])([O-])[O-]
area under cytotoxicity dose-response curve [1]: 35.3 | area under intracellular growth-inhibition dose-response curve [2]: 150

Cc1cc(C(F)F)nn1CC(=O)NC1C(=O)N2C(C(=O)O)=C(CSc3nnnn3C)CSC12 (stereo not drawn)
area under cytotoxicity dose-response curve [1]: 110 | area under intracellular growth-inhibition dose-response curve [2]: 86.3

Cc1ccc(C(=O)N2CCCC2)cc1Br
area under cytotoxicity dose-response curve [1]: 8.65 | area under intracellular growth-inhibition dose-response curve [2]: 166

CN1/C(=C/C(=O)c2cccs2)Sc2ccccc21
area under cytotoxicity dose-response curve [1]: 48 | area under intracellular growth-inhibition dose-response curve [2]: 139

O=C(NCCc1ccccc1)c1ccc(Br)o1
area under cytotoxicity dose-response curve [1]: 46.2 | area under intracellular growth-inhibition dose-response curve [2]: 193

CC(=O)Nc1ccc(Sc2ccc([N+](=O)[O-])o2)cc1
area under cytotoxicity dose-response curve [1]: 21.3 | area under intracellular growth-inhibition dose-response curve [2]: 108

O=C(N/N=C/C=C/c1cccc([N+](=O)[O-])c1)c1ccncc1
area under cytotoxicity dose-response curve [1]: 17.5 | area under intracellular growth-inhibition dose-response curve [2]: 111

O=Cc1c(Nc2cccc(C(F)(F)F)c2)nc2ccccn2c1=O
area under cytotoxicity dose-response curve [1]: < 0 | area under intracellular growth-inhibition dose-response curve [2]: 234

COc1ccccc1N1C(C)=CC(=Cc2sc3ccccc3[n+]2C)C=C1C.[I-]
area under cytotoxicity dose-response curve [1]: 25.9 | area under intracellular growth-inhibition dose-response curve [2]: 119

O=C(NC1C2CC3CC(C2)CC1C3)c1ccc2c(c1)OCO2 (stereo not drawn)
area under cytotoxicity dose-response curve [1]: 123 | area under intracellular growth-inhibition dose-response curve [2]: 226

Cc1nnc(SCC2=C(C(=O)O)N3C(=O)C(NC(=O)Cn4ncc(Cl)c4C)C3SC2)s1 (stereo not drawn)
area under cytotoxicity dose-response curve [1]: 66.2 | area under intracellular growth-inhibition dose-response curve [2]: 245

Cc1ccccc1-n1c(SCC(=O)N/N=C/c2c(C)nn(-c3ccccc3)c2C)nc2ccccc2c1=O
area under cytotoxicity dose-response curve [1]: 13.8 | area under intracellular growth-inhibition dose-response curve [2]: 203

O=C(Nc1ccc([N+](=O)[O-])cc1Cl)c1cc(Cl)ccc1O
area under cytotoxicity dose-response curve [1]: 108 | area under intracellular growth-inhibition dose-response curve [2]: 151

O=C(NCc1cccs1)c1ccc(Cl)s1
area under cytotoxicity dose-response curve [1]: 2.8 | area under intracellular growth-inhibition dose-response curve [2]: 212

CNC[C@@H](Cc1ccccc1)NC[C@@H](CC1CCCCC1)NCCCc1ccccc1
area under cytotoxicity dose-response curve [1]: 61.5 | area under intracellular growth-inhibition dose-response curve [2]: 104

Cc1cc(NC(=O)c2ccc([N+](=O)[O-])o2)ccc1NC(=O)c1ccco1
area under cytotoxicity dose-response curve [1]: 88.8 | area under intracellular growth-inhibition dose-response curve [2]: 63.8

Cc1ccc(C(=O)N2CCC(C)CC2)cc1C
area under cytotoxicity dose-response curve [1]: 24.4 | area under intracellular growth-inhibition dose-response curve [2]: 113

Cn1c(/C=C/c2ccc([N+](=O)[O-])o2)nc2ccccc2c1=O
area under cytotoxicity dose-response curve [1]: 53.2 | area under intracellular growth-inhibition dose-response curve [2]: 85.8

COc1ccc(-c2n(C)c3ccccc3[n+]2CC(=O)OC2CC(C)CCC2C(C)C)cc1.[Cl-] (stereo not drawn)
area under cytotoxicity dose-response curve [1]: 117 | area under intracellular growth-inhibition dose-response curve [2]: 140

CCOc1ccc(-c2cc(C)[n+](CCc3ccc(OC)c(OC)c3)c(-c3ccc(OCC)cc3)c2)cc1.[O-][Cl+3]([O-])([O-])[O-]
area under cytotoxicity dose-response curve [1]: 102 | area under intracellular growth-inhibition dose-response curve [2]: 60.7

CC(C)(O)C(=O)Nc1ccc([N+](=O)[O-])c(C(F)(F)F)c1
area under cytotoxicity dose-response curve [1]: 82.8 | area under intracellular growth-inhibition dose-response curve [2]: 35.7

Cc1cc(C)n(CC(=O)NC2C(=O)N3C(C(=O)O)=C(CSc4nnc(C)s4)CSC23)n1 (stereo not drawn)
area under cytotoxicity dose-response curve [1]: 11.2 | area under intracellular growth-inhibition dose-response curve [2]: 122

COc1ccc(OC)c2sc(N3CCN(C(=O)c4ccc([N+](=O)[O-])s4)CC3)nc12
area under cytotoxicity dose-response curve [1]: 14.2 | area under intracellular growth-inhibition dose-response curve [2]: 10.8

CCOC(=O)c1c(-c2ccccc2)nc2ccc(C)cn12
area under cytotoxicity dose-response curve [1]: 58.7 | area under intracellular growth-inhibition dose-response curve [2]: 203

COc1c(N2C[C@@H]3CCCN[C@@H]3C2)c(F)cc2c(=O)c(C(=O)O)cn(C3CC3)c12.Cl
area under cytotoxicity dose-response curve [1]: 62.8 | area under intracellular growth-inhibition dose-response curve [2]: 269

O=[N+]([O-])c1ccc(/C=N/Nc2nc(N3CCCC3)nc(N3CCCC3)n2)o1
area under cytotoxicity dose-response curve [1]: 171 | area under intracellular growth-inhibition dose-response curve [2]: 168

Sc1[nH]cnc2ncnc1-2
area under cytotoxicity dose-response curve [1]: < 0 | area under intracellular growth-inhibition dose-response curve [2]: 88.6

C=C[C@]1(C)C[C@@H](OC(=O)CSCCN(CC)CC)[C@]2(C)C(C)CC[C@]3(CCC(=O)[C@H]32)[C@@H](C)[C@@H]1O (stereo partly drawn)
area under cytotoxicity dose-response curve [1]: < 0 | area under intracellular growth-inhibition dose-response curve [2]: 231

Cc1cc(C)cc(NC(=O)NC2CCCCCCC2)c1
area under cytotoxicity dose-response curve [1]: 109 | area under intracellular growth-inhibition dose-response curve [2]: 198

O=C(NC(=S)Nc1ccc(-c2nc3ncccc3o2)cc1)c1ccccc1F
area under cytotoxicity dose-response curve [1]: < 0 | area under intracellular growth-inhibition dose-response curve [2]: 138

CCCC(C)NC(=O)c1ccc(F)cc1 (stereo not drawn)
area under cytotoxicity dose-response curve [1]: 4.45 | area under intracellular growth-inhibition dose-response curve [2]: 248

O=C(N/N=C/c1ccc([N+](=O)[O-])o1)c1cc2ccccc2o1
area under cytotoxicity dose-response curve [1]: 43.2 | area under intracellular growth-inhibition dose-response curve [2]: 106

O=C(Nc1ccc(F)cc1)NC1CCCCCCC1
area under cytotoxicity dose-response curve [1]: 144 | area under intracellular growth-inhibition dose-response curve [2]: 182

NC(=S)N/N=C/c1ccc(Br)o1
area under cytotoxicity dose-response curve [1]: 3.81 | area under intracellular growth-inhibition dose-response curve [2]: 246

Nc1ccc(C(=O)[O-])c(O)c1.[Na+]
area under cytotoxicity dose-response curve [1]: 27.5 | area under intracellular growth-inhibition dose-response curve [2]: 182

CSc1ccc(NC(N)=S)cc1
area under cytotoxicity dose-response curve [1]: 35.6 | area under intracellular growth-inhibition dose-response curve [2]: 248

Cc1ccc(-c2nn(-c3ccccc3)cc2/C=N/NC(=O)c2ccncc2)o1
area under cytotoxicity dose-response curve [1]: 48.7 | area under intracellular growth-inhibition dose-response curve [2]: 261

CCc1ccc([C@@H]2CC=C(C(=O)O)[C@H](c3ccc(C(C)(C)C)cc3)N2S(=O)(=O)c2ccc(C)cc2)cc1
area under cytotoxicity dose-response curve [1]: 78.6 | area under intracellular growth-inhibition dose-response curve [2]: 84.8

O=C(COC(=O)CCCOc1ccc(Cl)cc1Cl)NCc1ccc(F)cc1
area under cytotoxicity dose-response curve [1]: 40.6 | area under intracellular growth-inhibition dose-response curve [2]: 9.47

CCC(CO)NCCNC(CC)CO (stereo not drawn)
area under cytotoxicity dose-response curve [1]: 88.1 | area under intracellular growth-inhibition dose-response curve [2]: 154

CC1CN(c2ccc(NC(=S)Nc3ccc(N4CC(C)OC(C)C4)cc3)cc2)CC(C)O1 (stereo not drawn)
area under cytotoxicity dose-response curve [1]: 17.3 | area under intracellular growth-inhibition dose-response curve [2]: 186

CCO.C[C@H]1c2cccc(O)c2C(=O)C2=C(O)[C@]3(O)C(O)=C(C(N)=O)C(=O)[C@@H](N(C)C)C3[C@@H](O)C21.Cl.O (stereo partly drawn)
area under cytotoxicity dose-response curve [1]: 81.3 | area under intracellular growth-inhibition dose-response curve [2]: 242

CCC(C)N1CCC2(CC1)N=c1c3c(O)c4c(O)c(C)c5c(c4c1=N2)C(=O)[C@@](C)(OC=C[C@H](OC)[C@@H](C)[C@@H](OC(C)=O)[C@H](C)[C@H](O)[C@H](C)[C@@H](O)[C@@H](C)C=CC=C(C)C(=O)N3)O5 (stereo partly drawn)
area under cytotoxicity dose-response curve [1]: 86.3 | area under intracellular growth-inhibition dose-response curve [2]: 253

COc1ccc(Cc2nnc(-c3ccccc3)o2)cc1
area under cytotoxicity dose-response curve [1]: 28.8 | area under intracellular growth-inhibition dose-response curve [2]: 243

COc1ccc(/C(C)=N/NC(=O)c2ccncc2)cc1
area under cytotoxicity dose-response curve [1]: 151 | area under intracellular growth-inhibition dose-response curve [2]: 229

NC(=S)N/N=C/c1ccc(-c2ccc(Cl)c(Cl)c2)o1
area under cytotoxicity dose-response curve [1]: 107 | area under intracellular growth-inhibition dose-response curve [2]: 219

O=Cc1ccc2oc3nc4n(c(=O)c3c(=O)c2c1)CCCS4
area under cytotoxicity dose-response curve [1]: 95.3 | area under intracellular growth-inhibition dose-response curve [2]: 111

CC1CCC(C(C)C)C(OC(=O)Cn2c(COc3ccccc3)[n+](C)c3ccccc32)C1.[Cl-] (stereo not drawn)
area under cytotoxicity dose-response curve [1]: 39.3 | area under intracellular growth-inhibition dose-response curve [2]: 201

Cc1c(Cl)cccc1NC(=S)NCC(O)c1ccccc1 (stereo not drawn)
area under cytotoxicity dose-response curve [1]: 81.9 | area under intracellular growth-inhibition dose-response curve [2]: 158

Cc1c(C(=O)N(C)C)sc(NC(=O)c2cccc([N+](=O)[O-])c2)c1C#N
area under cytotoxicity dose-response curve [1]: 51.5 | area under intracellular growth-inhibition dose-response curve [2]: 13.8

O=[N+]([O-])c1ccc(CN2CCN(c3ccccc3)CC2)o1
area under cytotoxicity dose-response curve [1]: 42.8 | area under intracellular growth-inhibition dose-response curve [2]: 254

CC1CCC(C(C)C)C(OC(=O)Cn2c(-c3ccc(Br)cc3)[n+](C)c3ccccc32)C1.[Cl-] (stereo not drawn)
area under cytotoxicity dose-response curve [1]: 147 | area under intracellular growth-inhibition dose-response curve [2]: 128

Cl.c1ccc(-c2nnc(CN3CCCCC3)o2)cc1
area under cytotoxicity dose-response curve [1]: 36 | area under intracellular growth-inhibition dose-response curve [2]: 267

Cc1occc1C(=O)N/N=C/C=C/c1ccccc1
area under cytotoxicity dose-response curve [1]: 60 | area under intracellular growth-inhibition dose-response curve [2]: 87.6

C/C(CC(=O)Nc1ccc(Cl)cc1Cl)=N\NC(=O)c1ccncc1
area under cytotoxicity dose-response curve [1]: 46.2 | area under intracellular growth-inhibition dose-response curve [2]: 270

Cc1cc(=O)c2cc(Br)ccc2n1CC(=O)NCc1ccccc1
area under cytotoxicity dose-response curve [1]: 41.6 | area under intracellular growth-inhibition dose-response curve [2]: 233
